{"source": "patent US20130131161A1", "about": "“METHODS AND COMPOSITIONS FOR CARDIOVASCULAR DISEASES AND CONDITIONS” (priority 2009, published 2013)", "system": "eNOS", "test": "eNOS protein abundance in HUVECs by immunochemical methods (Example 2)", "assay_type": "cell-based, human", "conditions": "for eNOS protein abundance (mean ± sd): pg/ug total protein; for Fold difference eNOS protein abundance (mean ± sd): (LA-419 5 μM)/(control)", "excerpt": "eNOS Activity and Protein Abundance Measurements\nUsing immunochemical methods, there was no change in any condition in relation to eNOS protein abundance, Tables ss-L1.", "note": "Where “and” joins values, the source holds several entries; their conditions need not be identical. Equal entries are not always repeated.", "data": [{"smiles": "CC(=O)SC1COC2C(O[N+](=O)[O-])COC12", "note": "(stereo not drawn) [LA-419, S-(6-Nitro-oxi-hexahydro-furo[3,2-b]furan-3-1-il)thioacetate]", "values": [{"measurement": "eNOS protein abundance % Change (mean ± sd)", "setting": "5 μM LA-419, Intron 4 variant b/a, a/a, c/c (n=14)", "value": "0.32 (9.26) %"}, {"measurement": "eNOS protein abundance % Change (mean ± sd)", "setting": "5 μM LA-419, Intron 4 variant b/b (n=31)", "value": "−1.78 (6.88) %"}, {"measurement": "eNOS protein abundance (mean ± sd)", "setting": "5 μM LA-419, G894T + T786C G/G + T/C, n=8", "value": "6.27 (1.56) pg/ug"}, {"measurement": "eNOS protein abundance (mean ± sd)", "setting": "5 μM LA-419, G894T + T786C G/G + T/T, n=18", "value": "6.17 (1.24) pg/ug"}, {"measurement": "eNOS protein abundance (mean ± sd)", "setting": "5 μM LA-419, G894T + T786C G/T + C/C, n=1", "value": "7.25 (0) pg/ug"}, {"measurement": "eNOS protein abundance (mean ± sd)", "setting": "5 μM LA-419, G894T + T786C G/T + T/C, n=13", "value": "5.59 (1.08) pg/ug"}, {"measurement": "eNOS protein abundance (mean ± sd)", "setting": "5 μM LA-419, G894T + T786C G/T + T/T, n=4", "value": "5.82 (1.49) pg/ug"}, {"measurement": "eNOS protein abundance (mean ± sd)", "setting": "5 μM LA-419, G894T + T786C T/T + C/C, n=3", "value": "6.47 (1.34) pg/ug"}, {"measurement": "eNOS protein abundance (mean ± sd)", "setting": "5 μM LA-419, G894T + T786C T/T + T/C, n=2", "value": "4.52 (0.30) pg/ug"}, {"measurement": "eNOS protein abundance (mean ± sd)", "setting": "5 μM LA-419, G894T G/G, n=26", "value": "6.20 (1.31) pg/ug"}, {"measurement": "eNOS protein abundance (mean ± sd)", "setting": "5 μM LA-419, G894T G/T & T/T, n=23", "value": "5.72 (1.20) pg/ug"}, {"measurement": "eNOS protein abundance (mean ± sd)", "setting": "5 μM LA-419, G894T G/T, n=18", "value": "5.73 (1.17) pg/ug"}, {"measurement": "eNOS protein abundance (mean ± sd)", "setting": "5 μM LA-419, G894T T/T, n=5", "value": "5.69 (1.44) pg/ug"}, {"measurement": "eNOS protein abundance (mean ± sd)", "setting": "5 μM LA-419, Genotype Combination, n=31 (title: Combination = G/G + T/T, G/G + T/C, G/G/+C/C, G/T + T/T, G/T + T/C, G/T + C/C, T/T + T/C)", "value": "5.86 (1.30) pg/ug"}, {"measurement": "eNOS protein abundance (mean ± sd)", "setting": "5 μM LA-419, Genotype Reference, n=18 (title: Reference group = T/T + C/C)", "value": "6.17 (1.24) pg/ug"}, {"measurement": "eNOS protein abundance (mean ± sd)", "setting": "5 μM LA-419, Intron 4 a/a, n=3", "value": "7.17 (1.19) pg/ug"}, {"measurement": "eNOS protein abundance (mean ± sd)", "setting": "5 μM LA-419, Intron 4 b/a, a/a, c/c, n=14", "value": "6.31 (1.50) pg/ug"}, {"measurement": "eNOS protein abundance (mean ± sd)", "setting": "5 μM LA-419, Intron 4 b/a, n=10", "value": "5.95 (1.56) pg/ug"}, {"measurement": "eNOS protein abundance (mean ± sd)", "setting": "5 μM LA-419, Intron 4 b/b, n=31", "value": "5.75 (1.13) pg/ug"}, {"measurement": "eNOS protein abundance (mean ± sd)", "setting": "5 μM LA-419, Intron 4 c/c, n=1", "value": "7.39 (0) pg/ug"}, {"measurement": "eNOS protein abundance (mean ± sd)", "setting": "5 μM LA-419, T-786C CC, n=4", "value": "6.67 (1.16) pg/ug"}, {"measurement": "eNOS protein abundance (mean ± sd)", "setting": "5 μM LA-419, T-786C T/C & C/C, n=27", "value": "5.87 (1.30) pg/ug"}, {"measurement": "eNOS protein abundance (mean ± sd)", "setting": "5 μM LA-419, T-786C T/C, n=23", "value": "5.73 (1.29) pg/ug"}, {"measurement": "eNOS protein abundance (mean ± sd)", "setting": "5 μM LA-419, T-786C T/T, n=22", "value": "6.11 (1.26) pg/ug"}, {"measurement": "eNOS protein abundance % Change (mean ± sd)", "setting": "5 μM LA-419 vs control, n=2", "value": "−4.89 (0.49) %"}, {"measurement": "eNOS protein abundance % Change (mean ± sd)", "setting": "5 μM LA-419 vs control, G894T G/G, n=26", "value": "−1.07 (8.07) %"}, {"measurement": "eNOS protein abundance % Change (mean ± sd)", "setting": "5 μM LA-419 vs control, G894T G/T, n=18", "value": "−0.79 (7.54) %"}, {"measurement": "eNOS protein abundance % Change (mean ± sd)", "setting": "5 μM LA-419 vs control, G894T T/T, n=5", "value": "−1.54 (6.56) %"}, {"measurement": "eNOS protein abundance % Change (mean ± sd)", "setting": "5 μM LA-419 vs control, Intron 4 a/a, n=3", "value": "1.11 (10.89) %"}, {"measurement": "eNOS protein abundance % Change (mean ± sd)", "setting": "5 μM LA-419 vs control, Intron 4 b/a, n=10", "value": "0.68 (9.65) %"}, {"measurement": "eNOS protein abundance % Change (mean ± sd)", "setting": "5 μM LA-419 vs control, Intron 4 b/b, n=31", "value": "−1.78 (6.88) %"}, {"measurement": "eNOS protein abundance % Change (mean ± sd)", "setting": "5 μM LA-419 vs control, Intron 4 c/c, n=1", "value": "−5.66 (0) %"}, {"measurement": "eNOS protein abundance % Change (mean ± sd)", "setting": "5 μM LA-419 vs control, Race Asian, n=1", "value": "−17.56 (0) %"}, {"measurement": "eNOS protein abundance % Change (mean ± sd)", "setting": "5 μM LA-419 vs control, Race Black, n=12", "value": "−5.95 (6.82) %"}, {"measurement": "eNOS protein abundance % Change (mean ± sd)", "setting": "5 μM LA-419 vs control, Race Caucasian, n=26", "value": "2.50 (6.89) %"}, {"measurement": "eNOS protein abundance % Change (mean ± sd)", "setting": "5 μM LA-419 vs control, Race Hispanic, n=6", "value": "−1.16 (4.99) %"}, {"measurement": "eNOS protein abundance % Change (mean ± sd)", "setting": "5 μM LA-419 vs control, Race Not Reported, n=2", "value": "−4.62 (0.81) %"}, {"measurement": "eNOS protein abundance % Change (mean ± sd)", "setting": "5 μM LA-419 vs control, T-786C C/C, n=4", "value": "−6.82 (6.09) %"}, {"measurement": "eNOS protein abundance % Change (mean ± sd)", "setting": "5 μM LA-419 vs control, T-786C T/C, n=23", "value": "−0.37 (9.0) %"}, {"measurement": "eNOS protein abundance % Change (mean ± sd)", "setting": "5 μM LA-419 vs control, T-786C T/T, n=22", "value": "−0.64 (5.88) %"}, {"measurement": "Fold difference eNOS protein abundance (mean ± sd)", "setting": "Combination of all G894T + T-786C genotypes but G/G + T/T, n=31", "value": "0.99 (0.09)"}, {"measurement": "Fold difference eNOS protein abundance (mean ± sd)", "setting": "Combination of all G894T + T-786C genotypes but T/T + C/C, n=46", "value": "0.99 (0.08)"}, {"measurement": "Fold difference eNOS protein abundance (mean ± sd)", "setting": "G894T + T-786C G/G + T/C, n=8", "value": "0.98 (0.12)"}, {"measurement": "Fold difference eNOS protein abundance (mean ± sd)", "setting": "G894T + T-786C G/G + T/T, n=18", "value": "0.99 (0.06)"}, {"measurement": "Fold difference eNOS protein abundance (mean ± sd)", "setting": "G894T + T-786C G/T + C/C, n=1", "value": "0.88 (0)"}, {"measurement": "Fold difference eNOS protein abundance (mean ± sd)", "setting": "G894T + T-786C G/T + T/C, n=13", "value": "1.00 (0.07)"}, {"measurement": "Fold difference eNOS protein abundance (mean ± sd)", "setting": "G894T + T-786C G/T + T/T, n=4", "value": "1.00 (0.08)"}, {"measurement": "Fold difference eNOS protein abundance (mean ± sd)", "setting": "G894T + T-786C T/T + C/C, n=3", "value": "0.95 (0.06)"}, {"measurement": "Fold difference eNOS protein abundance (mean ± sd)", "setting": "G894T + T-786C T/T + T/C, n=2", "value": "1.04 (0.01)"}, {"measurement": "Fold difference eNOS protein abundance (mean ± sd)", "setting": "G894T G/G & G/T, n=44", "value": "0.99 (0.08)"}, {"measurement": "Fold difference eNOS protein abundance (mean ± sd)", "setting": "G894T G/G, n=26", "value": "1.00 (0.08) and 0.99 (0.08)"}, {"measurement": "Fold difference eNOS protein abundance (mean ± sd)", "setting": "G894T G/T & T/T, n=23", "value": "0.99 (0.07)"}, {"measurement": "Fold difference eNOS protein abundance (mean ± sd)", "setting": "G894T G/T, n=18", "value": "0.99 (0.08)"}, {"measurement": "Fold difference eNOS protein abundance (mean ± sd)", "setting": "G894T T/T, n=5", "value": "0.98 (0.07)"}, {"measurement": "Fold difference eNOS protein abundance (mean ± sd)", "setting": "Intron 4 a/a, n=3", "value": "1.01 (0.11)"}]}]}
